{
  "source": "patent US6417175B1",
  "about": "“Phosphonocephem derivatives, process for the preparation of the same, and use thereof” (Takeda Chemical Industries, Ltd., priority 1997, dated 2002)",
  "experiment": "Transformation into the amino form after incubation in mouse plasma at 37° C. (Experiment 1)",
  "format": "in vitro ADME",
  "settings": "10 mg equivalent/ml",
  "protocol": "The lyophilized 7β-[2(Z)-ethoxyimino-2-(5-phosphonoamino-1,2,4-thiadiazol-3-yl)acetamido]-3-[4-(1-methyl-4-pyridinio)-2-thiazolylthio]-3-cephem-4-carboxylate obtained in Working Example 6, was dissolved in mouse plasma to prepare 10 mg equivalent/ml solution. After incubation at 37° C., the transformation rate into 7β-[2(Z)-ethoxyimino-2-(5-amino-1,2,4-thiadiazol-3-yl)acetamido]-3-[4-(1-methyl-4-pyridinio)-2-thiazolylthio]-3-cephem-4-carboxylate (amino form) was measured. The transformation rates in 30 minutes and 1 hour were as follows: […]",
  "data": [
    {"smiles": "CCO/N=C(\\C(=O)N[C@@H]1C(=O)N2C(C(=O)[O-])=C(Sc3nc(-c4cc[n+](C)cc4)cs3)CS[C@H]12)c1nsc(NP(=O)(O)O)n1", "note": "[Working Example 6, 7β-[2(Z)-Ethoxyimino-2-(5-phosphonoamino-1,2,4-thiadiazol-3-yl)acetamido]-3-[4-(1-methyl-4-pyridinio)-2-thiazolylthio]-3-cephem-4-carboxylate]", "values": [
      {"measurement": "transformation rate into amino form", "setting": "30 minutes", "result": 35, "unit": "%"},
      {"measurement": "transformation rate into amino form", "setting": "1 hour", "result": 62, "unit": "%"}
    ]}
  ]
}
